ChEMBL document CHEMBL1949658, “3D-QSAR and 3D-QSSR models of negative allosteric modulators facilitate the design of a novel selective antagonist of human α4β2 neuronal nicotinic acetylcholine receptors” (Bioorg Med Chem Lett, 2012)

Key:
[1] = biological target: Neuronal acetylcholine receptor; alpha4/beta2 (Homo sapiens, UniProt P17787+P43681); assay: Antagonist activity at human nAChR alpha4/beta2 receptor expressed in HEK ts201 cells assessed as calcium accumulation by fluorescence analysis; assay type: functional, cell-based
Homo sapiens = species: Homo sapiens; assay: Selectivity ratio of pIC50 for human nAChR alpha3/beta4 receptor to pIC50 for human nAChR alpha4/beta2 receptor
[2] = biological target: Neuronal acetylcholine receptor; alpha3/beta4 (Homo sapiens, UniProt P30926+P32297); assay: Antagonist activity at human nAChR alpha3/beta4 receptor expressed in HEK ts201 cells assessed as calcium accumulation by fluorescence analysis; assay type: functional, cell-based
Sequence of Neuronal acetylcholine receptor; alpha3/beta4 (P30926 whole entry): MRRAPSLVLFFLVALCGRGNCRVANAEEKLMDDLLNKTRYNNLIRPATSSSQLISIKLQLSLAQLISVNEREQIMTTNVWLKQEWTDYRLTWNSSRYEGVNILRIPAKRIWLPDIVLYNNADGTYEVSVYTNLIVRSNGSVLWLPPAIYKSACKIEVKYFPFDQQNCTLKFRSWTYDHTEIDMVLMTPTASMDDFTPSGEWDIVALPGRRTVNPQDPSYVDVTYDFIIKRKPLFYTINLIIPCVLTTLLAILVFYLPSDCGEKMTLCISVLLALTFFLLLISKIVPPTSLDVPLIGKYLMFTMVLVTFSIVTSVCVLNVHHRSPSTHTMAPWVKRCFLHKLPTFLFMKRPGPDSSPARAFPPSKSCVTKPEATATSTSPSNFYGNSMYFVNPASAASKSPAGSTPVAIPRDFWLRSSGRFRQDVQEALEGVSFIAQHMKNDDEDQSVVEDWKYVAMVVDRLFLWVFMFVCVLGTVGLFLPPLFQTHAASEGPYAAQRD
Sequence of Neuronal acetylcholine receptor; alpha3/beta4 (P32297 whole entry): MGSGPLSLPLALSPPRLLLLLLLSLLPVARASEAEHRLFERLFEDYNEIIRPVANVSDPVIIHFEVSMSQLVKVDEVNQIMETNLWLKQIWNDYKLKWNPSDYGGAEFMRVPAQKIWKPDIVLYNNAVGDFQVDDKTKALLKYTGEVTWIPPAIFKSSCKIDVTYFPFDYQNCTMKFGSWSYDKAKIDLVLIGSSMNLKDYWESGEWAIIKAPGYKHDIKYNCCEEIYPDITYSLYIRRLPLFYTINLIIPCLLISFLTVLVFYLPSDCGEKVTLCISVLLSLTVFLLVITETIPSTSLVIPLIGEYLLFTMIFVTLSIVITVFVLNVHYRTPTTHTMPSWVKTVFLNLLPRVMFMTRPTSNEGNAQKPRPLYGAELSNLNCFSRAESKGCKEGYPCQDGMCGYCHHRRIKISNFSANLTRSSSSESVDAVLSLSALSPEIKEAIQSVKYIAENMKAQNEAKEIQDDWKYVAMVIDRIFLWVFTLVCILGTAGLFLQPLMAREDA

Sequence of Neuronal acetylcholine receptor; alpha4/beta2 (P17787 whole entry): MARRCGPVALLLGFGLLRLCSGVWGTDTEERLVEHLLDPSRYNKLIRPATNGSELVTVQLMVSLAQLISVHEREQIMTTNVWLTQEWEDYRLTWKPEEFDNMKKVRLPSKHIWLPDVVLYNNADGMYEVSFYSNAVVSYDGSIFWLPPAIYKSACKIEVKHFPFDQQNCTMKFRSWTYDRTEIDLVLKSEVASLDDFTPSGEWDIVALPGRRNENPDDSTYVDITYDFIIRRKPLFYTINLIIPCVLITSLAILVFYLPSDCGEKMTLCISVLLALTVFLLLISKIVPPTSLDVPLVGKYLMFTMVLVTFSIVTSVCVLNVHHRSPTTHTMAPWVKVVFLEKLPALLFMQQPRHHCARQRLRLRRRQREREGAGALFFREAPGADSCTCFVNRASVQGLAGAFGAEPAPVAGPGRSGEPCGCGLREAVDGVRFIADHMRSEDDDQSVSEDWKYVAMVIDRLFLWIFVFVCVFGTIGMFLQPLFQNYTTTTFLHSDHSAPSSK
Sequence of Neuronal acetylcholine receptor; alpha4/beta2 (P43681 whole entry): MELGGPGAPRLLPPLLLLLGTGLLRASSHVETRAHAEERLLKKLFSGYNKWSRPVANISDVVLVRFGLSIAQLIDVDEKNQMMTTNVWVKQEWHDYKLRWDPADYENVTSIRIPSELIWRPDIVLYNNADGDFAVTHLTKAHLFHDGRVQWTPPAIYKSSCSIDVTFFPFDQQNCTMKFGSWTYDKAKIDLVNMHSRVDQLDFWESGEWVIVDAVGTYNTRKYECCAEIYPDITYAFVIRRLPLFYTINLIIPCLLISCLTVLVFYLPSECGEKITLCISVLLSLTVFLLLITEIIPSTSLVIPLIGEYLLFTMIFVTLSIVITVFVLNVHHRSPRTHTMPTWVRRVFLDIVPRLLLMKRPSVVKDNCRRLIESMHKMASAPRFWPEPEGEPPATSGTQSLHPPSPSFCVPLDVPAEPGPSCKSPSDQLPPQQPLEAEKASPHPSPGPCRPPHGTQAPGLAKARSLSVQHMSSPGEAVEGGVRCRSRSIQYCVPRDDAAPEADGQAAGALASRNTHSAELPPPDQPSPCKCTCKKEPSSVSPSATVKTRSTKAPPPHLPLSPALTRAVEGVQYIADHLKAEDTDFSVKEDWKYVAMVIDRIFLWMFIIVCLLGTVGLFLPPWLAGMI

Row | SMILES | IC50 ([1]; read-out: IC50) | Ratio pIC50 (Homo sapiens) | IC50 ([2]; read-out: IC50) | IC50 ([1]; read-out: pIC50 (converted)) | IC50 ([2]; read-out: pIC50 (converted))
1 | O=C(OCC1CCN(CCCc2ccccc2)CC1)c1ccccc1-c1ccccc1 | 8.1 µM | 0.11 | 10.5 µM | – | –
2 | Cc1ccc(OCCN2CCCC(COC(=O)c3ccccc3N3C(=O)CC(C)C3=O)C2)cc1 (stereo unspecified) | – | 0.22 | – | 11.2 µM | 18.6 µM
3 | c1ccc(CCCN2CCCC(COCc3ccccc3-c3ccccc3)C2)cc1 (stereo unspecified) | – | 0.09 | – | 12.6 µM | 15.5 µM
4 | COc1ccc(CC2CC(=O)N(c3ccccc3C(=O)OCC3CCCN(CCCc4ccccc4)C3)C2=O)cc1 (stereo unspecified) | – | -0.13 | – | 38.9 µM | 28.8 µM
5 | O=C(OCC1CCCN(C(=O)CCc2ccccc2)C1)c1ccccc1-c1ccccc1 (stereo unspecified) | 5.6 µM | 1.74 | > 100 µM | 6.03 µM | 331 µM
6 | CC1CC(=O)N(c2ccccc2C(=O)OCC2CCCN(CCCC3CCCCC3)C2)C1=O (stereo unspecified) | – | -0.14 | – | 14.5 µM | 10.7 µM
7 | O=C(OCC1CCCN(CCCc2ccccc2)C1)c1ccccc1-n1cc(-c2ccccc2)nn1 (single isomer, unassigned) | – | 0.19 | – | 2.82 µM | 4.27 µM
8 | CC1CC(=O)N(c2ccccc2C(=O)OCC2CCCN(CCOc3ccc4ccccc4c3)C2)C1=O (stereo unspecified) | – | -0.04 | – | 7.41 µM | 6.76 µM
9 | c1ccc(CCCN2CCCC(COCc3cn(Cc4ccccc4-c4ccccc4)nn3)C2)cc1 (stereo unspecified) | – | 0.39 | – | 2.88 µM | 7.24 µM
10 | COc1ccc(OCCCCCN2CCCC(COC(=O)c3ccccc3N3C(=O)CC(C)C3=O)C2)cc1OC (stereo unspecified) | – | 2.38 | – | 8.32 µM | 2000 µM
11 | O=C(NCC1CCCN(CCCc2ccccc2)C1)c1ccccc1-c1ccccc1 (single isomer, unassigned) | – | 3.7 | – | 20 µM | –
12 | CCN1CCCC(COC(=O)c2ccccc2N2C(=O)CC(Cc3ccccc3)C2=O)C1 (stereo unspecified) | – | 0.42 | – | 4.47 µM | 11.7 µM
13 | CC(C)N1CC(OC(=O)c2ccccc2-c2ccccc2)C2CC1C1OC(C)(C)OC21 (stereo unspecified) | – | – | – | 9.55 µM | –
14 | O=C(CCC1CCCNC1)c1ccccc1-c1ccccc1 (stereo unspecified) | – | -0.14 | – | 9.12 µM | 6.61 µM
15 | COc1cccc(OCCCCCN2CCCC(COC(=O)c3ccccc3N3C(=O)CC(C)C3=O)C2)c1OC (stereo unspecified) | – | – | – | 8.71 µM | –
16 | CC1CC(=O)N(c2ccccc2C(=O)OCC2CCCN(CCc3c[nH]c4ccccc34)C2)C1=O (stereo unspecified) | – | 1.12 | – | 5.62 µM | 74.1 µM

Row | SMILES | IC50 ([1]; read-out: IC50) | Ratio pIC50 (Homo sapiens) | IC50 ([2]; read-out: IC50) | IC50 ([1]; read-out: pIC50 (converted)) | IC50 ([2]; read-out: pIC50 (converted))
17 | CO[C@@H]1C[C@H](OC)C[C@@H](OCCN2CCCC(COC(=O)c3ccccc3N3C(=O)CC(C)C3=O)C2)C1 (stereo partly specified) | – | 0.68 | – | 12.6 µM | 41.7 µM
18 | CC1(C)CC(=O)N(c2ccccc2C(=O)OCC2CCCN(CCCc3ccccc3)C2)C1=O (single isomer, unassigned) | – | 0.01 | – | 4.9 µM | 5.01 µM
19 | CC1CC(=O)N(c2ccccc2C(=O)OCC2CCCN(CCCCCOc3ccccc3)C2)C1=O (stereo unspecified) | – | – | – | 17 µM | –
20 | CN1CCCC(COC(=O)c2ccccc2-c2ccccc2)C1 (single isomer, unassigned) | – | -0.16 | – | 6.92 µM | 4.79 µM
21 | CC1CC(=O)N(c2ccccc2C(=O)OCC2CCCN(CCOc3cccc(Cl)c3)C2)C1=O (stereo unspecified) | – | 0.14 | – | 21.9 µM | 11.5 µM
22 | CC1CC(=O)N(c2ccccc2C(=O)OCC2CCCN(CCCCCc3ccccc3)C2)C1=O (stereo unspecified) | – | -0.77 | – | 24.5 µM | 4.17 µM
23 | O=C(OCC1=CCCN(CCCc2ccccc2)C1)c1ccccc1N1C(=O)CC(Cc2ccccc2)C1=O (stereo unspecified) | – | -0.14 | – | 5.13 µM | 3.72 µM
24 | O=C(OCC1CCCN(CCCc2ccccc2)C1)c1ccccc1N1C(=O)CC(Cc2ccc(Cl)cc2)C1=O (stereo unspecified) | – | 0.14 | – | 10.7 µM | 14.5 µM
25 | O=C(OCC1CCCN(CCCc2ccccc2)C1)c1ccccc1-c1cccc2ccccc12 (stereo unspecified) | – | 0.73 | – | – | –
26 | CCN1CC(OC(=O)c2ccccc2N2C(=O)CC(C)C2=O)C2CC1C1OC(C)(C)OC21 (stereo unspecified) | – | 0.81 | – | 12 µM | 77.6 µM
27 | CC1CC(=O)N(c2ccccc2C(=O)OC2CN(C(C)C)C3CC2C2OC(C)(C)OC23)C1=O (stereo unspecified) | – | – | – | 7.59 µM | –
28 | CC1CC(=O)N(c2ccccc2C(=O)OC[C@@H]2C[C@H](c3ccccc3)CN(CCCc3ccccc3)C2)C1=O (stereo partly specified) | – | – | – | 5.37 µM | –
29 | CC(=O)Nc1ccccc1C(=O)OCC1CCCN(CCCc2ccccc2)C1 (stereo unspecified) | – | -0.11 | – | 5.5 µM | 4.27 µM
30 | CC1CC(=O)N(c2ccccc2C(=O)OCC2CCCN(CCCCCCc3ccccc3)C2)C1=O (stereo unspecified) | – | – | – | 29.5 µM | –
31 | O=C(OCC1CCCN(CCCc2ccccc2)C1)c1ccccc1N1C(=O)c2ccccc2C1=O (single isomer, unassigned) | – | 0.07 | – | 5.01 µM | 5.89 µM
32 | CC1CC(=O)N(c2ccccc2C(=O)OC2CN(CCCc3ccccc3)C3CC2C2OC(C)(C)OC23)C1=O (stereo unspecified) | – | – | – | – | 30.9 µM
